B1: CD40L: cytokine used to stimulate endothelial cells or monocyte/macrophages (protein, UniProt P29965 113-261, looked up)
CD40 ligand, soluble form: MQKGDQNPQIAAHVISEASSKTTSVLQWAEKGYYTMSNNLVTLENGKQLTVKRQGLYYIYAQVTFCSNREASSQAPFIASLCLKSPGRFERILLRAANTHSSAKPCGQQSIHLGGVFELQPGASVFVNVTDPSQVSHGTGFTSFGLLKL
B2: IFNgamma: cytokine used to stimulate endothelial cells or monocyte/macrophages (protein, UniProt P01579 24-161, looked up)
Interferon gamma: QDPYVKEAENLKKYFNAGHSDVADNGTLFLGILKNWKEESDRKIMQSQIVSFYFKLFKNFKDDQSIQKSVETIKEDMNVKFFNSNKKKRDDFEKLTNYSVTDLNVQRKAIHELIQVMAELSPAAKTGKRKRSQMLFRG

Key:
[1] = tested on: 10550 mRNA; experiment: TaqMan analysis of 10550 mRNA in in vivo marmoset models
Text: (§1) This example describes the TaqMan™ procedure. The Taqman™ procedure is a quantitative, reverse transcription PCR-based approach for detecting mRNA. The RT-PCR reaction exploits the 5′ nuclease activity of AmpliTaq Gold™ DNA Polymerase to cleave a TaqMan™ probe during PCR. Briefly, cDNA was generated from the samples of interest, e.g., heart, kidney, liver, skeletal muscle, and various vessels, and used as the starting material for PCR amplification. In addition to the 5′ and 3′ gene-specific primers, a gene-specific oligonucleotide probe (complementary to the region being amplified) was included in the reaction (i.e., the Taqman™ probe). […]
(§2) During the PCR reaction, cleavage of the probe separates the reporter dye and the quencher dye, resulting in increased fluorescence of the reporter. Accumulation of PCR products is detected directly by monitoring the increase in fluorescence of the reporter dye. When the probe is intact, the proximity of the reporter dye to the quencher dye results in suppression of the reporter fluorescence. […]

[2] = tested on: 12680 mRNA; experiment: TaqMan analysis of 12680 mRNA in in vivo marmoset models
Text: as §1, §2

[3] = tested on: 10183 mRNA; experiment: TaqMan analysis of 10183 mRNA in in vivo marmoset models
Text: As assessed by TaqMan analysis, 10183 mRNA is repressed by probucol and cerivastatin/fenofibrate in in vivo marmoset models. Probucol is used clinically for the treatment of atherosclerosis/coronary artery disease. Genes that are regulated by probucol in animal models and/or in vitro models are predicted to be responsible for the therapeutic benefit of this agent and represent new therapeutic targets for the treatment of cardiovascular disease/atherosclerosis/dyslipidemia/lipid disorders. Fibrates are used clinically for the reduction of triglycerides and statins for the reduction of cholesterol, both well-defined risk factor for atherosclerosis/coronary artery disease. Genes that are regulated by this combination treatment in animal models and/or in vitro models are predicted to be responsible for the therapeutic benefit of these agents and represent new therapeutic targets for the treatment of cardiovascular disease/atherosclerosis/dyslipidemia/lipid disorders. […] PPAR alpha agonists are used clinically for the reduction of triglycerides and statins for the reduction of cholesterol, both well-defined risk factor for atherosclerosis/coronary artery disease. […]

[4] = tested on: 1486 mRNA; experiment: TaqMan analysis of 1486 mRNA in livers of treated marmosets; format: in vivo, marmoset
Text: as §1, §2

[5] = tested on: 2414 mRNA; experiment: TaqMan analysis of 2414 mRNA during cytokine stimulation of endothelial cells and monocyte/macrophages; format: cell-based; details: cytokine stimulation of either endothelial cells or monocyte/macrophages
Text: CD40L, TNFalpha, IL-1, and IFNgamma were used to stimulate either endothelial cells or monocyte/macrophages. These cytokines initiate/sustain the atherosclerotic pathogenesis
This example describes the TaqMan™ procedure.

[6] = tested on: 1261 mRNA; experiment: TaqMan analysis of 1261 mRNA in human microvascular endothelial cells (HMVEC) from the heart; format: cell-based; details: HMVEC from the heart treated with the factor
[7] = tested on: 2398; details: endothelial cells
Text: as §1, §2

[8] = tested on: 32248 mRNA; experiment: TaqMan analysis of 32248 mRNA in monkey liver model; format: in vivo
Text: As assessed by TaqMan analysis, 32248 mRNA was repressed by n-3 polyunsaturated fatty acid in monkey liver model. […] Genes that are regulated by polyunsaturated fatty acids in animal models and/or in vitro models are predicted to be responsible for the therapeutic benefit of this agent and represent new therapeutic targets for the treatment of cardiovascular disease/atherosclerosis/dyslipidemia/lipid disorders. […] Cholestyramine is used clinically for the reduction of cholesterol, a defined risk factor for atherosclerosis/coronary artery disease. Genes that are regulated by cholestyramine in animal models and/or in vitro models are predicted to be responsible for the therapeutic benefit of this agent and represent new therapeutic targets for the treatment of cardiovascular disease/atherosclerosis/dyslipidemia/lipid disorders. Fibrates are used clinically for the reduction of triglycerides and statins for the reduction of cholesterol, both well-defined risk factor for atherosclerosis/coronary artery disease. Genes that are regulated by this combination treatment in animal models and/or in vitro models are predicted to be responsible for the therapeutic benefit of these agents and represent new therapeutic targets for the treatment of cardiovascular disease/atherosclerosis/dyslipidemia/lipid disorders. 32248 was highly expressed in human liver. […]

| Molecule | expression of 2414 mRNA [5] | expression of human 1261 mRNA [6] | other results |
| --- | --- | --- | --- |
| CC(C)(Sc1cc(C(C)(C)C)c(O)c(C(C)(C)C)c1)Sc1cc(C(C)(C)C)c(O)c(C(C)(C)C)c1 [probucol] | – | – | 10550 mRNA [1]: repressed; 12680 mRNA [2]: repressed; 10183 mRNA [3]: repressed; 1486 mRNA [4]: repressed |
| TNF-alpha | up-regulated | upregulated | – |
| IL-1beta: pro-angiogenic factor interleukin 1 beta | – | upregulated | – |
| VEGF | – | upregulated | 2398 expression [7]: upregulated |
| n-3 polyunsaturated fatty acid | – | – | 32248 mRNA [8]: repressed |
| B1 | up-regulated | – | – |
| B2 | up-regulated | – | – |

Source: US20030119742A1, “Methods and compositions to treat cardiovascular disease using 139, 258, 1261, 1486, 2398, 2414, 7660, 8587,10183, 10550, 12680, 17921, 32248, 60489 or 93804” (Millennium Pharmaceuticals, Inc., priority 2001, published 2003)
